Legend:
[1] = tested on: premalignant (1799, 1198) and malignant (1170) HBE cell lines; experiment: MTT assay, growth of premalignant and malignant HBE cell lines; type: cell-based; conditions: premalignant and malignant HBE cells; unpublished data
Source text: Cells and Cell Cultures. […] Tumors developed 6 months later. […] (Klein-Szanto et al., 1992).

NHBE = experiment: MTT assay, growth inhibition / viability of normal HBE cells
Experimental: Cells and Cell Cultures. […] Normal HBE (NHBE) cells were purchased from Clontech (Palo Alto, Calif.). […] Cells were grown on tissue culture plasticware (Falcon; Bector, Dickinson, Bedford, Mass.) at 37° C. in a humidified atmosphere with 5% C02. For the analyses of growth inhibition, cell cycle, and induction of apoptosis by deguelin, NHBE cells, HBE cell lines, and squamous HBE cells were cultured in KSFM (Life Technologies) containing 2 μg/ml of EGF and bovine pitutary extract.
Cell Treatment with Deguelin and Determination of Growth Inhibition. To measure the effects of deguelin on cell proliferation, NHBE, 1799 cells, 1198 cells, and 1170 cells were transferred onto 96-well plates at densities ranging from 2×10^3 to 4×10^3 cells/well. After 1 day, the cells were changed to the fresh medium containing various concentrations of deguelin dissolved in DMSO (final concentration, 0.1%). Control cultures received 0.1% dimethyl sulfoxide (DMSO) as did the deguelin-treated cultures. […] After 1 day of infection, cells were treated with 10^−7 M or 10^−6 M of deguelin, or 0.1% DMSO as a control, and then incubated for 2 days. […] Six replicate wells were used for each analysis.

[2] = tested on: genes controlled by the TPA response element (TRE); conditions: cited from earlier work

| Structure (SMILES) | concentration required to induce detectable cell growth inhibition [1] | cytotoxicity on NHBE cells (NHBE) | concentration inhibiting PMA-induction of TRE-controlled genes [2] [µM] |
| --- | --- | --- | --- |
| O=c1cc(N2CCOCC2)oc2c(-c3ccccc3)cccc12 [LY294002, reference compound] | more than 10 μM | significant cytotoxicity |  |
| N#CC(=C(N)Sc1ccccc1N)C(C#N)=C(N)Sc1ccccc1N [U0126, 1,4diamino-2,3-dicyano-1,4 bis[2-aminophenylthio]butadiene] |  |  | 1 to 2 |

From US20060128792A1, “Deguelin as a chemopreventive agent for lung cancer” (priority 2002, published 2006)
